pEC50: −log10 of the molar value. Values joined by “and” are separate entries in the source; they are usually repeats but may differ in a detail not shown here. Equal values may be shown once.
Assays:
[1] = target: E. coli Lig-N-HiBiT (DNA ligase) (Escherichia coli, UniProt P15042); assay: biochemical
[2] = target: T1, ABL1-N-HiBiT kinase domain (Homo sapiens, UniProt P00519); assay: SDR assay, ABL1-N-HiBiT
T1 sequence (P00519 233-500): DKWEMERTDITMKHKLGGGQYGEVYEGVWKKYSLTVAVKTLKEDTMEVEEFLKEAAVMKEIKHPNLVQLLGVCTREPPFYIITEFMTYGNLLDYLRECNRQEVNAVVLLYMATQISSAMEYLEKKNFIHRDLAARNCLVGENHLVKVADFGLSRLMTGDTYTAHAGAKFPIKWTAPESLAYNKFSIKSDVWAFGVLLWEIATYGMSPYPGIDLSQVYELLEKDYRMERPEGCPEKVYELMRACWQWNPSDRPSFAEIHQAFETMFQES

[3] = tested on: E. coli Lig-C-HiBiT (DNA ligase); assay: SDR assay (aqueous ligand dispense), E. coli Lig-C-HiBiT; details: for SDR assay data: 1 nM E. coli Lig-C-HiBiT; for SDR assay data / SDR response: Log [ATP]; for SDR response: replicates
[4] = E. coli Lig-C-HiBiT (1.0 nM), ligand 100 µM

Chain of E. coli Lig-N-HiBiT (DNA ligase) (P15042 2-671): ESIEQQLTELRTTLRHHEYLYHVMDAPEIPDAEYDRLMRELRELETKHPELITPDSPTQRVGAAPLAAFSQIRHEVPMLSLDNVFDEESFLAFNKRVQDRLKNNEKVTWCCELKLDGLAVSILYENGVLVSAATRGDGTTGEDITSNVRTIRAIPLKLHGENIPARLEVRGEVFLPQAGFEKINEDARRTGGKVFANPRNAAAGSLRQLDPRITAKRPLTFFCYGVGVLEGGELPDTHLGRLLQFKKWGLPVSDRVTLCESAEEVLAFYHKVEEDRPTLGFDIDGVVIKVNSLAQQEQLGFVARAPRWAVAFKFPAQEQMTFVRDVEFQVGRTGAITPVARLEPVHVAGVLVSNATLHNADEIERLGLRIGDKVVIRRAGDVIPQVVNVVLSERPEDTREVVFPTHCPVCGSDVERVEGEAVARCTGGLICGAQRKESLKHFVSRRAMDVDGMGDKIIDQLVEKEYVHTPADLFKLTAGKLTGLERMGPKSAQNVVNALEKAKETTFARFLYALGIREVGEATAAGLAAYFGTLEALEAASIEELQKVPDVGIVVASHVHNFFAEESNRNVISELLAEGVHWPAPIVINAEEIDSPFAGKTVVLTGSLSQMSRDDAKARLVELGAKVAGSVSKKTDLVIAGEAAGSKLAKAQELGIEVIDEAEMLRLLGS

`Nc1ncnc2c1ncn2[C@@H]1O[C@H](COP(=O)(O)OP(=O)(O)OP(=O)(O)O)[C@@H](O)[C@H]1O` [ATP] was tested, and the pEC50 [1] was ≤ 4.00, the pEC50 [2] was 4.61 and the SDR assay data ([3]; M -3.15) was 6.4 and 7.5 and 12.8. The SDR assay data ([3]; M -3.75) was 7.0 and 9.1, the SDR assay data ([3]; M -4.05) was 6.9 and 5.8 and 9.6 and the SDR assay data ([3]; M -6.76) was 5.3 and 6.4 and 8.6. The “SDR assay statistics Ave RLU” value [3, 4] was 2214.0 RLU, the “SDR assay statistics S:B” value [3, 4] was 1.1 and the max resp ([3]; E. coli Lig-C-HiBiT, maximum response) was 7.8. The SDR response ([3]; M -2.85) was 4.8 and 10.7, the SDR response ([3]; M -3.15) was 6.4 and 12.8 and the SDR response ([3]; M -3.45) was 4.5 and 9.6. For the same molecule, the SDR response ([3]; M -3.75) was 7.0 and 9.1, the SDR response ([3]; M -4.05) was 6.9 and 5.8 and 9.6 and the SDR response ([3]; M -4.35) was 9.4 and 4.6 and 6.2. For the same molecule, the SDR response ([3]; M -4.65) was 10.2 and 2.5, the SDR response ([3]; M -4.95) was 10.5 and 2.6 and the SDR response ([3]; M -5.25) was 4.4 and 2.6 and 13.4. The SDR response ([3]; M -5.55) was 1.7 and 7.1, the SDR response ([3]; M -5.86) was 5.9 and the SDR response ([3]; M -6.16) was 9.8 and 1.1 and 5.3. For the same molecule, the SDR response ([3]; M -6.46) was 6.3 and 0.236 and 4.6 and the SDR response ([3]; M -6.76) was 5.3 and 6.4.
